Key:
RPMI-8226 (leukemia) = test: NCI 60-cell one-dose antiproliferative screen; type: cell-based, human; conditions: one dose 10 μM
[1] = test system: NCI-H522 (NSC lung cancer); test: NCI 60-cell one-dose antiproliferative screen; type: cell-based, human; conditions: one dose 10 μM
RXF 393 (renal cancer) = test: NCI 60-cell one-dose antiproliferative screen; type: cell-based, human; conditions: one dose 10 μM
MALME-3M (melanoma) = test: NCI 60-cell one-dose antiproliferative screen; type: cell-based, human; conditions: one dose 10 μM
SK-MEL-28 (melanoma) = test: NCI 60-cell one-dose antiproliferative screen; type: cell-based, human; conditions: one dose 10 μM
SF-539 (CNS cancer) = test: NCI 60-cell one-dose antiproliferative screen; type: cell-based, human; conditions: one dose 10 μM
[2] = test system: MDA-MB-468 (breast cancer); test: NCI 60-cell one-dose antiproliferative screen; type: cell-based, human; conditions: one dose 10 μM
PC-3 (prostate cancer) = test: NCI 60-cell one-dose antiproliferative screen; type: cell-based, human; conditions: one dose 10 μM
SNB-19 (CNS cancer) = test: NCI 60-cell one-dose antiproliferative screen; type: cell-based, human; conditions: one dose 10 μM
TK-10 (renal cancer) = test: NCI 60-cell one-dose antiproliferative screen; type: cell-based, human; conditions: one dose 10 μM
MCF7 (breast cancer) = test: NCI 60-cell one-dose antiproliferative screen; type: cell-based, human; conditions: one dose 10 μM
HS 578T (breast cancer) = test: NCI 60-cell one-dose antiproliferative screen; type: cell-based, human; conditions: one dose 10 μM
[3] = test system: 60 human tumor cell lines; test: NCI 60-cell one-dose antiproliferative screen, whole panel; type: cell-based; conditions: Homo sapiens, 60 cell, read-out: Mean inhibition (mean GI%)
SK-OV-3 (ovarian cancer) = test: NCI 60-cell one-dose antiproliferative screen; type: cell-based, human; conditions: one dose 10 μM
HCC-2998 (colon cancer) = test: NCI 60-cell one-dose antiproliferative screen; type: cell-based, human; conditions: one dose 10 μM
HT29 (colon cancer) = test: NCI 60-cell one-dose antiproliferative screen; type: cell-based, human; conditions: one dose 10 μM
ACHN (renal cancer) = test: NCI 60-cell one-dose antiproliferative screen; type: cell-based, human; conditions: one dose 10 μM
HCT-15 (colon cancer) = test: NCI 60-cell one-dose antiproliferative screen; type: cell-based, human; conditions: one dose 10 μM
SF-295 (CNS cancer) = test: NCI 60-cell one-dose antiproliferative screen; type: cell-based, human; conditions: one dose 10 μM
COLO-205 (colon cancer) = test: NCI 60-cell one-dose antiproliferative screen; type: cell-based, human; conditions: one dose 10 μM
A498 (renal cancer) = test: NCI 60-cell one-dose antiproliferative screen; type: cell-based, human; conditions: one dose 10 μM
[4] = test system: NCI-H226 (NSC lung cancer); test: NCI 60-cell one-dose antiproliferative screen; type: cell-based, human; conditions: one dose 10 μM
CCRF-CEM (leukemia) = test: NCI 60-cell one-dose antiproliferative screen; type: cell-based, human; conditions: one dose 10 μM
LOX IMIV (melanoma) = test: NCI 60-cell one-dose antiproliferative screen; type: cell-based, human; conditions: one dose 10 μM
M14 (melanoma) = test: NCI 60-cell one-dose antiproliferative screen; type: cell-based, human; conditions: one dose 10 μM
SF-268 (CNS cancer) = test: NCI 60-cell one-dose antiproliferative screen; type: cell-based, human; conditions: one dose 10 μM
SW-620 (colon cancer) = test: NCI 60-cell one-dose antiproliferative screen; type: cell-based, human; conditions: one dose 10 μM
[5] = test system: A549/ATCC (NSC lung cancer); test: NCI 60-cell one-dose antiproliferative screen; type: cell-based, human; conditions: one dose 10 μM
SN12C (renal cancer) = test: NCI 60-cell one-dose antiproliferative screen; type: cell-based, human; conditions: one dose 10 μM
786-0 (renal cancer) = test: NCI 60-cell one-dose antiproliferative screen; type: cell-based, human; conditions: one dose 10 μM
OVCAR-8 (ovarian cancer) = test: NCI 60-cell one-dose antiproliferative screen; type: cell-based, human; conditions: one dose 10 μM
SNB-75 (CNS cancer) = test: NCI 60-cell one-dose antiproliferative screen; type: cell-based, human; conditions: one dose 10 μM
UACC-257 (melanoma) = test: NCI 60-cell one-dose antiproliferative screen; type: cell-based, human; conditions: one dose 10 μM
HOP-92 (NSC lung cancer) = test: NCI 60-cell one-dose antiproliferative screen; type: cell-based, human; conditions: one dose 10 μM
CAKI-1 (renal cancer) = test: NCI 60-cell one-dose antiproliferative screen; type: cell-based, human; conditions: one dose 10 μM
[6] = test system: NCI-H322M (NSC lung cancer); test: NCI 60-cell one-dose antiproliferative screen; type: cell-based, human; conditions: one dose 10 μM
MDA-MB-435 (melanoma) = test: NCI 60-cell one-dose antiproliferative screen; type: cell-based, human; conditions: one dose 10 μM
[7] = test system: NCI-H23 (NSC lung cancer); test: NCI 60-cell one-dose antiproliferative screen; type: cell-based, human; conditions: one dose 10 μM
EKVX (NSC lung cancer) = test: NCI 60-cell one-dose antiproliferative screen; type: cell-based, human; conditions: one dose 10 μM
UACC-62 (melanoma) = test: NCI 60-cell one-dose antiproliferative screen; type: cell-based, human; conditions: one dose 10 μM
HOP-62 (NSC lung cancer) = test: NCI 60-cell one-dose antiproliferative screen; type: cell-based, human; conditions: one dose 10 μM
[8] = test system: NCI/ADR-RES (ovarian cancer); test: NCI 60-cell one-dose antiproliferative screen; type: cell-based, human; conditions: one dose 10 μM
KM12 (colon cancer) = test: NCI 60-cell one-dose antiproliferative screen; type: cell-based, human; conditions: one dose 10 μM
HCT-116 (colon cancer) = test: NCI 60-cell one-dose antiproliferative screen; type: cell-based, human; conditions: one dose 10 μM
DU-145 (prostate cancer) = test: NCI 60-cell one-dose antiproliferative screen; type: cell-based, human; conditions: one dose 10 μM
OVCAR-5 (ovarian cancer) = test: NCI 60-cell one-dose antiproliferative screen; type: cell-based, human; conditions: one dose 10 μM
UO-31 (renal cancer) = test: NCI 60-cell one-dose antiproliferative screen; type: cell-based, human; conditions: one dose 10 μM
U251 (CNS cancer) = test: NCI 60-cell one-dose antiproliferative screen; type: cell-based, human; conditions: one dose 10 μM
[9] = test system: NCI-H460 (NSC lung cancer); test: NCI 60-cell one-dose antiproliferative screen; type: cell-based, human; conditions: one dose 10 μM
OVCAR-3 (ovarian cancer) = test: NCI 60-cell one-dose antiproliferative screen; type: cell-based, human; conditions: one dose 10 μM
SK-MEL-2 (melanoma) = test: NCI 60-cell one-dose antiproliferative screen; type: cell-based, human; conditions: one dose 10 μM
OVCAR-4 (ovarian cancer) = test: NCI 60-cell one-dose antiproliferative screen; type: cell-based, human; conditions: one dose 10 μM
T-47D (breast cancer) = test: NCI 60-cell one-dose antiproliferative screen; type: cell-based, human; conditions: one dose 10 μM
[10] = test system: MDA-MB-231/ATCC (breast cancer); test: NCI 60-cell one-dose antiproliferative screen; type: cell-based, human; conditions: one dose 10 μM
IGROV1 (ovarian cancer) = test: NCI 60-cell one-dose antiproliferative screen; type: cell-based, human; conditions: one dose 10 μM

CN(C)c1ccc(C=NNc2ccc3nnc(-c4ccccc4)n3n2)cc1 [Compound 4c, N,N-Dimethyl-4-((2-(3-phenyl-[1,2,4]triazolo[4,3-b]pyridazin-6-yl)hydrazono)methyl)aniline]
GI% (RPMI-8226 (leukemia)): — (— GI% is below 15%)
GI% [1]: 40.80%
GI% (RXF 393 (renal cancer)): 15.29%
GI% (MALME-3M (melanoma)): — (— GI% is below 15%)
GI% (SK-MEL-28 (melanoma)): — (— GI% is below 15%)
GI% (SF-539 (CNS cancer)): — (— GI% is below 15%)
GI% [2]: — (— GI% is below 15%)
GI% (PC-3 (prostate cancer)): 18.94%
GI% (SNB-19 (CNS cancer)): 30.50%
GI% (TK-10 (renal cancer)): — (— GI% is below 15%)
GI% (MCF7 (breast cancer)): 34.47%
GI% (HS 578T (breast cancer)): 33.19%
inhibition at 10 µM [3]: 17.7%
GI% (SK-OV-3 (ovarian cancer)): — (— GI% is below 15%)
GI% (HCC-2998 (colon cancer)): — (— GI% is below 15%)
GI% (HT29 (colon cancer)): — (— GI% is below 15%)
GI% (ACHN (renal cancer)): 21.61%
GI% (HCT-15 (colon cancer)): 19.56%
GI% (SF-295 (CNS cancer)): — (— GI% is below 15%)
GI% (COLO-205 (colon cancer)): — (— GI% is below 15%)
GI% (A498 (renal cancer)): — (— GI% is below 15%)
GI% [4]: — (— GI% is below 15%)
GI% (CCRF-CEM (leukemia)): — (— GI% is below 15%)
GI% (LOX IMIV (melanoma)): 62.55%
GI% (M14 (melanoma)): — (— GI% is below 15%)
GI% (SF-268 (CNS cancer)): 57.96%
GI% (SW-620 (colon cancer)): — (— GI% is below 15%)
GI% [5]: — (— GI% is below 15%)
GI% (SN12C (renal cancer)): — (— GI% is below 15%)
GI% (786-0 (renal cancer)): 18.27%
GI% (OVCAR-8 (ovarian cancer)): 57.57%
GI% (SNB-75 (CNS cancer)): 65.40%
GI% (UACC-257 (melanoma)): — (— GI% is below 15%)
GI% (HOP-92 (NSC lung cancer)): 29.78%
GI% (CAKI-1 (renal cancer)): 32.25%
GI% [6]: — (— GI% is below 15%)
GI% (MDA-MB-435 (melanoma)): — (— GI% is below 15%)
GI% [7]: 38.62%
GI% (EKVX (NSC lung cancer)): 21.18%
GI% (UACC-62 (melanoma)): — (— GI% is below 15%)
GI% (HOP-62 (NSC lung cancer)): — (— GI% is below 15%)
GI% [8]: 55.19%
GI% (KM12 (colon cancer)): 28.28%
GI% (HCT-116 (colon cancer)): — (— GI% is below 15%)
GI% (DU-145 (prostate cancer)): 26.64%
GI% (OVCAR-5 (ovarian cancer)): — (— GI% is below 15%)
GI% (UO-31 (renal cancer)): 18.89%
GI% (U251 (CNS cancer)): 24.58%
GI% [9]: 18.89%
GI% (OVCAR-3 (ovarian cancer)): 34.65%
GI% (SK-MEL-2 (melanoma)): — (— GI% is below 15%)
GI% (OVCAR-4 (ovarian cancer)): 41.36%
GI% (T-47D (breast cancer)): 22.66%
GI% [10]: — (— GI% is below 15%)
GI% (IGROV1 (ovarian cancer)): — (— GI% is below 15%)

Cc1ccc(-c2nnc3ccc(NN=Cc4ccccc4)nn23)cc1 [Compound 4d, 6-(2-Benzylidenehydrazinyl)-3-(p-tolyl)-[1,2,4]triazolo[4,3-b]pyridazine]
GI% (RPMI-8226 (leukemia)): 19.37%
GI% [1]: — (— GI% is below 15%)
GI% (RXF 393 (renal cancer)): — (— GI% is below 15%)
GI% (MALME-3M (melanoma)): — (— GI% is below 15%)
GI% (SK-MEL-28 (melanoma)): — (— GI% is below 15%)
GI% (SF-539 (CNS cancer)): 19.19%
GI% [2]: — (— GI% is below 15%)
GI% (PC-3 (prostate cancer)): — (— GI% is below 15%)
GI% (SNB-19 (CNS cancer)): — (— GI% is below 15%)
GI% (TK-10 (renal cancer)): — (— GI% is below 15%)
GI% (MCF7 (breast cancer)): 52.06%
GI% (HS 578T (breast cancer)): 53.45%
inhibition at 10 µM [3]: 18.3%
GI% (SK-OV-3 (ovarian cancer)): — (— GI% is below 15%)
GI% (HCC-2998 (colon cancer)): — (— GI% is below 15%)
GI% (HT29 (colon cancer)): — (— GI% is below 15%)
GI% (ACHN (renal cancer)): — (— GI% is below 15%)
GI% (HCT-15 (colon cancer)): 30.81%
GI% (SF-295 (CNS cancer)): 47.66%
GI% (COLO-205 (colon cancer)): — (— GI% is below 15%)
GI% (A498 (renal cancer)): — (— GI% is below 15%)
GI% [4]: — (— GI% is below 15%)
GI% (CCRF-CEM (leukemia)): — (— GI% is below 15%)
GI% (LOX IMIV (melanoma)): 52.47%
GI% (M14 (melanoma)): 32.66%
GI% (SF-268 (CNS cancer)): 42.23%
GI% (SW-620 (colon cancer)): — (— GI% is below 15%)
GI% [5]: — (— GI% is below 15%)
GI% (SN12C (renal cancer)): — (— GI% is below 15%)
GI% (786-0 (renal cancer)): — (— GI% is below 15%)
GI% (OVCAR-8 (ovarian cancer)): — (— GI% is below 15%)
GI% (SNB-75 (CNS cancer)): >100%
GI% (UACC-257 (melanoma)): — (— GI% is below 15%)
GI% (HOP-92 (NSC lung cancer)): 29.46%
GI% (CAKI-1 (renal cancer)): 16.69%
GI% [6]: — (— GI% is below 15%)
GI% (MDA-MB-435 (melanoma)): 23.87%
GI% [7]: 39.55%
GI% (EKVX (NSC lung cancer)): 23.07%
GI% (UACC-62 (melanoma)): — (— GI% is below 15%)
GI% (HOP-62 (NSC lung cancer)): — (— GI% is below 15%)
GI% [8]: 15.93%
GI% (KM12 (colon cancer)): 42.77%
GI% (HCT-116 (colon cancer)): — (— GI% is below 15%)
GI% (DU-145 (prostate cancer)): 24.06%
GI% (OVCAR-5 (ovarian cancer)): — (— GI% is below 15%)
GI% (UO-31 (renal cancer)): 15.52%
GI% (U251 (CNS cancer)): 24.9%
GI% [9]: 31.51%
GI% (OVCAR-3 (ovarian cancer)): 69.65%
GI% (SK-MEL-2 (melanoma)): — (— GI% is below 15%)
GI% (OVCAR-4 (ovarian cancer)): 30.86%
GI% (T-47D (breast cancer)): — (— GI% is below 15%)
GI% [10]: — (— GI% is below 15%)
GI% (IGROV1 (ovarian cancer)): — (— GI% is below 15%)

From paper PMC11420776 (RSC Advances, 2024)
